One may read the AUC(0-inf) as the area under the concentration-time curve extrapolated to infinity. For orientation: AUC(0-t) means exposure summed from dosing to a finite time, without extrapolation to infinity. The low end stands for less exposure, the high end for more exposure. The term Cmax denotes the maximum level reached in the sampled fluid or tissue. Broadly, the half-life is how long it takes for the measured level to halve. By IC50 is commonly meant the concentration at which inhibition is half-maximal.

These results are taken from patent US9656951B2, “Polymorphs of CDDO ethyl ester and uses thereof” (Applied Pharmaceutical Science, Inc., priority 2012, dated 2017).

A short description of one series: in vivo. Also on record: species or system mice. The following applies: mouse, ip, 10 mg/kg. As for the experimental part: Female CD-I mice were injected ip with 10 mg/kg of the three polymorphs of the compound of Formula I (CDDO ethyl) and methyl 2-cyano-3,12-dioxoIeana-1,9(11)-dien-28-oate (CDDO methyl) in DMSO-cremphor-PBS (1:1:8 weight by weight or volum by volum). Blood samples were collected at 0.083, 0.25, 0.5, 1, 2, 4, 8, and 24 hr post-dose. The levels were quantified by HPLC/MS using compound add to control blood for standard. PK results are shown at Table 3. The systemic exposure of the three polymorphs of the compound of Formula I of CDDO ethyl is higher than that of CDD) methyl. Following is the order: The glassy solid form of CDDO ethyl>Crystalline Form II of CDDO ethyl>Crystalline Form I of CDDO ethyl>CDDO Methyl

Series [1] in a line: Stability determination of polymorphs (XRD) at 25° C./60% R.H. and 40° C./75% R.H. The format is physicochemical. As for the experimental part: Other polymorphs of this invention were used similar in the study.
The glassy solid Form of the compound of Formula I, prepared as described in Example 4, was test at 25° C./60% R.H. and 40° C./75% R.H for one week.

Series [2] relates to NO production induced by IFN-g in mouse macrophages (RAW 264.7 cells). Description: Measurement of NO in RAW 264.7 cells induced by IFN-γ. The class given is cell-based. The conditions noted are these: RAW264.7 cells, 10 ng/ml IFN-γ, 48 hours. As for the experimental part: Assay Protocol Procedures
1 Maintained RAW264.7 cells in DMEM with 10% FBS at 37° C., 5% CO2.
Induction of NO in RAW264.7 Cells
1. The cells were seeded at 1×10^5/well onto 96-well cell culture plate.
2. After incubation for 2 hours at 37° C. under 5% CO2, the nonadherent cells were removed by aspiration and freshly prepared complete medium with 10 ng/ml IFN-γ and dilluted compounds was added.
3. Incubated the cells at 37° C. under 5% CO2 for another 48 hours.
Measurement of NO in RAW Cells
1. Centrifuged at 1000 rpm for 5 minutes to collect supernatant medium.
2. Prepared 1 ml of a 100 μM nitrite solution by diluting the provided 0.1 M Nitrite Standard 1:1,000 in the matrix or buffer used for the experimental samples.
4. Allowed the Sulfanilamide Solution and NED Solution to equilibrate to room temperature (15-30 minutes).
5. Added 50 μl of each experimental sample to wells in duplicate.
6. Used a multichannel pipettor to dispense 50 μl of the Sulfanilamide Solution to all experimental samples and wells containing the dilution series for the Nitrite Standard.
7. […]
10. Measured absorbance within 30 minutes in a plate reader with a filter between 520 nm and 550 nm.
The inhibitory activities [as measured by the IC50 (nM) value] of Crystalline Form II of the compound of Formula I (CDDO ethyl ester) on NO production induced by IFN-g in mouse macrophages 17 are shown in FIG. 5.

The mark [3] stands for this setting: 25° C./60% R.H. and 40° C./75% R.H.

In the series “in vivo” (female, CD-I), `COC(=O)[C@]12CCC(C)(C)C[C@H]1[C@H]1C(=O)C=C3[C@@]4(C)C=C(C#N)C(=O)C(C)(C)[C@@H]4CC[C@@]3(C)[C@]1(C)CC2` [CDDO Methyl Ester, methyl 2-cyano-3,12-dioxoIeana-1,9(11)-dien-28-oate, reference compound] gave an area under the curve AUC(0-inf) of 1970 ng·h/mL, an AUC(0-t) of 1800 ng·h/mL, a Cmax of 363 ng/mL and a half-life of 6.6 h. The compound further registered a tmax in the series “in vivo” (female, CD-I) of 0.8 h.
Consider “ethyl 2-cyano-3,12-dioxoIeana-1,9(11)-dien-28-oate [Crystalline Form I of CDDO ethyl]”, for which, in the series “in vivo”, the AUCInf turned out to be 3456 ng·h/mL, the AUClast turned out to be 3221 ng·h/mL, the Cmax is reported as 466 ng/mL and the t1/2 came out at 8.3 h. The same compound displayed a tmax in the series “in vivo” of 0.8 h.
“ethyl 2-cyano-3,12-dioxoIeana-1,9(11)-dien-28-oate [Crystalline Form II of CDDO ethyl]”: in “in vivo”, the AUCInf is 3840 ng·h/mL, the AUClast turned out to be 3443 ng·h/mL, the Cmax is given as 482 ng/mL and the t1/2 amounted to 7.3 h. The tmax in the series “in vivo” amounted to 0.8 h. For the same compound, in series [1] (setting [3]), the “change of XRD on storage” value is “no significant change of XRD” and the “thermodynamic stability compared to other polymorphs” value was “most thermodynamically stable crystal form”. The IC50 in series [2] (listed as Crystalline Form II of the compound of Formula I (CDDO ethyl ester)) is 34 nM.
In “in vivo”, “ethyl 2-cyano-3,12-dioxoIeana-1,9(11)-dien-28-oate [The glassy solid form of CDDO ethyl]” displayed an AUCInf of 7526 ng·h/mL, an AUClast of 4721 ng·h/mL, a peak concentration (Cmax) of 513 ng/mL and a t1/2 of 16.1 h. The same compound showed a tmax in the series “in vivo” of 0.8 h. Also, the “change of XRD on storage” value in series [1] (25° C./60% R.H. and 40° C./75% R.H for one week) is “no significant change of XRD”. In series [2] (listed as glassy solid form of the compound of Formula I (CDDO ethyl ester)), this compound had a concentration for half-maximal inhibition (IC50) of 32 nM.
